Results on 7 compounds are retold here after ChEMBL document CHEMBL3044931, “Synthesis and Antimuscarinic Activity of Derivatives of 2-Substituted-1,3-Dioxolanes” (Med Chem Res, 2005).

Experiment [1] is described as follows: Antagonist activity at Oryctolagus cuniculus (rabbit) vas deferens M1 receptor after 1 hr. Particulars: read-out: pA2 (converted).
For the next experiment, the species on record is Oryctolagus cuniculus. Briefly: Binding affinity to Oryctolagus cuniculus (rabbit) vas deferens M1 receptor after 1 hr.
Experiment [2] has as its target Muscarinic acetylcholine receptor M3 (Cavia porcellus) (UniProt Q8VH26). Briefly: Binding affinity to Cavia porcellus (guinea pig) ileum M3 receptor after 30 min. Type of experiment: tissue-based.
Experiment [3] concerns the target T1, Muscarinic receptor 2 (Cavia porcellus) (UniProt Q8VH27).
T1 sequence (whole entry): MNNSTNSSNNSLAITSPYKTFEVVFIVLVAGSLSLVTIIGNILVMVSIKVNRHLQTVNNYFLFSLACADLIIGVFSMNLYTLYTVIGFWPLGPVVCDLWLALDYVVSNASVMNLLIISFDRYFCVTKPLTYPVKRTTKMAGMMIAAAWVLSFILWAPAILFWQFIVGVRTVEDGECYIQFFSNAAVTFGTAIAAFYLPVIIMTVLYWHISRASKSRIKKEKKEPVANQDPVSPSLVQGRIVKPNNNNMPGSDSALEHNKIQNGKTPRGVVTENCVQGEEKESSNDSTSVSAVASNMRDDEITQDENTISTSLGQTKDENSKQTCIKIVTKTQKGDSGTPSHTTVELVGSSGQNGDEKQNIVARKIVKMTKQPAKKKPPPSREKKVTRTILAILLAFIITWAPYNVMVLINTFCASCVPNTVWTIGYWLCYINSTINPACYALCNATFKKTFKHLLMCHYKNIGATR
The experiment can be described thus: Binding affinity to Cavia porcellus (guinea pig) left atria M2 receptor after 2 hr.

Experiment [4] is described as follows: Selectivity ratio of pKb for rabbit vas deferens M1 receptor to pKb for guinea pig left atria M2 receptor.
Experiment [5] is described as follows: Selectivity ratio of pKb for rabbit vas deferens M1 receptor to pKb for guinea pig ileum M3 receptor. In kind it is tissue-based.
For the next experiment, the species on record is Cavia porcellus. The experiment can be described thus: Selectivity ratio of pKb for Cavia porcellus (guinea pig) ileum M3 receptor to pKb for Cavia porcellus (guinea pig) left atria M2 receptor. The settings on record: Atrium/Ileum. Type of experiment: tissue-based.

Chain of Muscarinic acetylcholine receptor M3 (Cavia porcellus) (Q8VH26 1-587): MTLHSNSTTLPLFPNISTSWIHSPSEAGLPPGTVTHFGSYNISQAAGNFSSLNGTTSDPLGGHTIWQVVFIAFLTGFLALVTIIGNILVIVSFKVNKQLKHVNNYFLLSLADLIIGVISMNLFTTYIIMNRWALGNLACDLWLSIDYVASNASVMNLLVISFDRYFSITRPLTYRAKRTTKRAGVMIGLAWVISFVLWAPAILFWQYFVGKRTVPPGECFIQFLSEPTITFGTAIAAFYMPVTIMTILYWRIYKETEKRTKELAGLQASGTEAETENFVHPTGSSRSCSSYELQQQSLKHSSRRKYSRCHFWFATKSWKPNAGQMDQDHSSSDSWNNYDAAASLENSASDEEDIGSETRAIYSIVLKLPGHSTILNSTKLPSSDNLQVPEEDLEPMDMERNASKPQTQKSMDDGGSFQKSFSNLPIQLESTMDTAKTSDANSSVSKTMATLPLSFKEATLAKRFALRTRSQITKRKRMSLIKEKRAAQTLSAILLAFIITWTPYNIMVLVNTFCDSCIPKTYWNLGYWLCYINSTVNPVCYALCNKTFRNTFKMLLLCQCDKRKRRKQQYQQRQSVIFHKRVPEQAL

As for `CN(C)[C@H]1CO[C@@H](C(c2ccccc2)c2ccccc2)OC1`, the Kb in experiment [1] was 6.17 nM.
Take `CN(C)[C@H]1CO[C@H](C(c2ccccc2)c2ccccc2)OC1`: the Kb in experiment [1] was 389 nM.
As usually defined, the pKb is the Kb on a negative log10 scale, so that one unit is a factor of ten. A higher pKb goes with a low Kb. Regarding `CN(C)CC1COC(c2ccccc2)(c2ccccc2)O1` (configuration not stated), the figures for the pKb (in the experiment listed under Oryctolagus cuniculus; in experiment [2]; in experiment [3]) were 7.15, 6.72 and 7.11, respectively. The Ratio pKb came to 1 in experiment [4], 3 in experiment [5] and 0.4 in the experiment listed under Cavia porcellus.
Consider `CN(C)C[C@@H]1CO[C@@H](C(c2ccccc2)c2ccccc2)O1`, for which the pKb worked out at 6.9 in the experiment filed under Oryctolagus cuniculus, 6.67 in experiment [2] and 6.56 in experiment [3]. Also, the Ratio pKb was 2 in experiment [4], 2 in experiment [5] and 1 in the experiment listed under Cavia porcellus.
As for `CN(C)C[C@@H]1CO[C@H](C(c2ccccc2)c2ccccc2)O1` (relative stereo), the pKb in the experiment listed under Oryctolagus cuniculus worked out at 7.31; in experiment [2], 6.07; in experiment [3] it was 6.62. Further, the values for the Ratio pKb (in experiment [4]; in experiment [5]; in the experiment filed under Cavia porcellus) were 5, 17 and 0.3, respectively.
As to `C[C@@H]1OC(c2ccccc2)(c2ccccc2)O[C@@H]1CN(C)C` (relative stereo), the pKb in the experiment listed under Oryctolagus cuniculus came to 6.35; in experiment [2] it was 6.44; in experiment [3], 6.48. The figures for the Ratio pKb (in experiment [4]; in experiment [5]; in the experiment listed under Cavia porcellus) were 0.7, 0.8 and 0.9, respectively.
As for `C[C@H]1OC(c2ccccc2)(c2ccccc2)O[C@@H]1CN(C)C` (relative stereo), the pKb in the experiment filed under Oryctolagus cuniculus came to 6.87; in experiment [2] it was 6.71; in experiment [3] it was 6.71. The Ratio pKb (in experiment [4]; in experiment [5]; in the experiment listed under Cavia porcellus) was 1 throughout.
